Read-outs that look alike come from different tables or passages of the source.
Key:
[1] = biological target: T1, α1G T-type calcium channel (Homo sapiens, UniProt O43497); assay: Assay for % inhibiting activity against T-type calcium channel using FDSS6000 (fluo-3 calcium imaging, KCl activation); format: cell-based
T1 construct: host or cells: HEK293
Outline: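 HEK293 cells stably expressing α1G and Kir2.1 loaded with 5 μM fluo-3/AM, then in HEPES buffer (pH 7.4) with 10 mM CaCl2. Compound applied 75 s before 75 mM KCl; intracellular Ca2+ read as […] area, % inhibition relative to untreated control.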

[2] = HEK293, 10 μM, HEK293 cells stably expressing α1G T-type calcium channel and Kir2.1, compounds of the examples, read-out: FDSS (% inhibition)/10uM
[3] = 10 μM, FDSS (% inhibition), comparative compounds where R6 is a phenyl group, read-out: FDSS

T1 sequence (O43497 whole entry): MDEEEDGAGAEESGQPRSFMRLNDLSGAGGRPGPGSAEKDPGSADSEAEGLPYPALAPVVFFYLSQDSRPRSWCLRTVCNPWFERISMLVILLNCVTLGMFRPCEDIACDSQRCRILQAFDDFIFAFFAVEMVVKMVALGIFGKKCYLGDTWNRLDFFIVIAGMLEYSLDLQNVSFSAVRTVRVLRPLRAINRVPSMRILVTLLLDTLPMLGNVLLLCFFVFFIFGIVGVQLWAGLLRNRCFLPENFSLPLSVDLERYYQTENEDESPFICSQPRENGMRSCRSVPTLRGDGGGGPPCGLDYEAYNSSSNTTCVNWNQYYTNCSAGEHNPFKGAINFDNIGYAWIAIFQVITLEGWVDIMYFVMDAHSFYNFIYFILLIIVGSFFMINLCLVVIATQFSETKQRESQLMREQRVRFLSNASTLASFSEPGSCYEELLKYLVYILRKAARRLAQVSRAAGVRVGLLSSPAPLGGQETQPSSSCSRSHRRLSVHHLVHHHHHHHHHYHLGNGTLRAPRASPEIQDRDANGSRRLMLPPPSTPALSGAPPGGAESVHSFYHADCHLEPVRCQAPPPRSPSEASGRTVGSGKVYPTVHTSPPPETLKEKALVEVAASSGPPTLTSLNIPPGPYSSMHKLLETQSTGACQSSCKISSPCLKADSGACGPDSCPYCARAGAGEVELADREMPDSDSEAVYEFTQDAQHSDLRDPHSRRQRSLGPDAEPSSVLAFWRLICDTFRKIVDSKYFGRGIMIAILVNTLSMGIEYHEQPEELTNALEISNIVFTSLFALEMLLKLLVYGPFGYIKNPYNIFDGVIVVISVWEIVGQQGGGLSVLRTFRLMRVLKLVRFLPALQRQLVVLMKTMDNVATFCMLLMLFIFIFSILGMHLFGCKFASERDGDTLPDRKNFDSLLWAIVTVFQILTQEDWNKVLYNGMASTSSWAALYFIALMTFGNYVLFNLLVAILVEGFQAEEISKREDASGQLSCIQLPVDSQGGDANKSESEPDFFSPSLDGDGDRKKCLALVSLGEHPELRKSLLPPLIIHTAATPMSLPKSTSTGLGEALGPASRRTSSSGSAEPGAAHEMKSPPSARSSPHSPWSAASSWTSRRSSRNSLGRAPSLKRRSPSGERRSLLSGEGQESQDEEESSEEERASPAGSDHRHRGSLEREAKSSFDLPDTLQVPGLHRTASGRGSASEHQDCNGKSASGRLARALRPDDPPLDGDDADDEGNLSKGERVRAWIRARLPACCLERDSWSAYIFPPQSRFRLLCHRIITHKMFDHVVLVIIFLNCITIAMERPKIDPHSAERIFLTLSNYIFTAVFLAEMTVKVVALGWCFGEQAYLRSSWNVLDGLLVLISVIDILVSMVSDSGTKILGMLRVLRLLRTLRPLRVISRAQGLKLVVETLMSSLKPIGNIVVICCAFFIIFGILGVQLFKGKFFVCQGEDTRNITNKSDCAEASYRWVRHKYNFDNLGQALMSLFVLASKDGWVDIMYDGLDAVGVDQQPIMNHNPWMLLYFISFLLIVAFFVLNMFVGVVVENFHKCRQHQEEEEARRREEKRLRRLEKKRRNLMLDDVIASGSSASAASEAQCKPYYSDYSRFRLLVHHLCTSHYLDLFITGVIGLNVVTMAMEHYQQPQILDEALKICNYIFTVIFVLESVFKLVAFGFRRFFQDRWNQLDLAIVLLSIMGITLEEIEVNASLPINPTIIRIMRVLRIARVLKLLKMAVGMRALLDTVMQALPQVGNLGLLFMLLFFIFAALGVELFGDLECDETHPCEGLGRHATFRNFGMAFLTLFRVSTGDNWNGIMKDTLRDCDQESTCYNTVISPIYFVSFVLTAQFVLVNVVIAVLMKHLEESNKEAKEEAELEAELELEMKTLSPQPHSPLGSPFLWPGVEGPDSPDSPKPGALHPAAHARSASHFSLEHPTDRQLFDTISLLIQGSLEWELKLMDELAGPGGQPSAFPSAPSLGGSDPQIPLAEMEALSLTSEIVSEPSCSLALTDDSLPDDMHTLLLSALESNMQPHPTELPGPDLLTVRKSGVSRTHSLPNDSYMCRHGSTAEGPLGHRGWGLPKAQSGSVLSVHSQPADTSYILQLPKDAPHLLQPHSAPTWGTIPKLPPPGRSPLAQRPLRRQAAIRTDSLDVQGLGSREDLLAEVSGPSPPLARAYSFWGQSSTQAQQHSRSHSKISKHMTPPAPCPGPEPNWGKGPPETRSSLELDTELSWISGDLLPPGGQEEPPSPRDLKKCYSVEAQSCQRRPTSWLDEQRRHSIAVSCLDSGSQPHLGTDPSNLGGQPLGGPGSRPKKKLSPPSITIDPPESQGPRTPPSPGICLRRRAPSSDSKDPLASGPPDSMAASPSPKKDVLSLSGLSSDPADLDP

With CCN1C(=NC2CCCCC2)SCC1CC(=O)Nc1cc(C(F)(F)F)cc(C(F)(F)F)c1.Cl (stereo not drawn) [KHG24261, [2-cyclohexylimino-3-ethyl-1,3-thiazolidine-4-yl]-N-(3,5-ditrifluoromethylphenyl)-acetamide hydrochloride] the inhibition at 10 µM [1, 2] was 65% and the melting point was 226.4 °C.

For CC(C)c1ccc(NC(=O)CC2CSC(=NC3CCCCC3)N2Cc2ccccc2)cc1.Cl (stereo not drawn) [KHG24303, (2-cyclohexylimino-3-benzyl-1,3-thiazolidine-4-yl)-N-(4-isopropylphenyl)-acetamide hydrochloride], the inhibition at 10 µM [1, 2] was 31.1% and the melting point was 202.9 °C.

In the case of Cc1ccc(NC(=O)CC2C(C)SC(=NC3CCCCCC3)N2C)cc1.Cl (stereo not drawn) [KHG24639, (2-cycloheptylimino-3,5-dimethyl-1,3-thiazolidine-4-yl)-N-(4-methylphenyl)-acetamide hydrochloride], the inhibition at 10 µM [1, 2] is reported as 48.5% and the melting point is reported as 248 to 250 °C.

With CCCCN1C(=NC23CC4CC(CC(C4)C2)C3)SCC1CC(=O)Nc1ccc(C(C)C)cc1.Cl (stereo not drawn) [KHG24795, [2-(1-adamantylimino)-3-(n-butyl)-1,3-thiazolidine-4-yl]-N-(4-isopropylphenyl)-acetamide hydrochloride] the inhibition at 10 µM [1, 2] was 33.7% and the melting point was 244 °C.

With COc1ccc(CNC(=O)C2CSC(=NC3CCCCCC3)N2C)cc1.Cl (stereo not drawn) [KHG24339, (2-cycloheptylimino-3-methyl-1,3-thiazolidine-4-yl)-N-(4-methoxybenzyl)-carboxamide hydrochloride] the inhibition at 10 µM [1, 2] was 44.2% and the melting point was 156 to 159 °C.

With CCN1C(=NC2CCCCC2)SCC1CC(=O)Nc1ccc(C(F)(F)F)cc1.Cl (stereo not drawn) [KHG24280, [2-cyclohexylimino-3-ethyl-1,3-thiazolidine-4-yl]-N-(4-trifluoromethylphenyl)-acetamide hydrochloride] the inhibition at 10 µM [1, 2] was 54% and the melting point was 191 °C.

With CC(C)N1C(=NC23CC4CC(CC(C4)C2)C3)SCC1CC(=O)Nc1ccc(Cl)cc1F.Cl (stereo not drawn) [KHG24834, [2-(1-adamantylimino)-3-isopropyl-1,3-thiazolidine-4-yl]-N-(4-chloro-2-fluorophenyl)-acetamide hydrochloride] the inhibition at 10 µM [1, 2] was 65.7% and the melting point was 228 °C.

For Cc1ccc(NC(=O)CC2CSC(=NC34CC5CC(CC(C5)C3)C4)N2C(C)C)cc1Cl.Cl (stereo not drawn) [KHG24836, [2-(1-adamantylimino)-3-isopropyl-1,3-thiazolidine-4-yl]-N-(5-chloro-4-methylphenyl)-acetamide hydrochloride], the inhibition at 10 µM [1, 2] was 48.9% and the melting point was 231 °C.

CN1C(=NC2CCCCCC2)SCC1C(=O)Nc1ccc(Br)cc1 (stereo not drawn) [KHG24633, (2-cycloheptylimino-3-methyl-1,3-thiazolidine-4-yl)-N-(4-bromophenyl)-carboxamide] showed an inhibition at 10 µM [1, 2] of 40.4% and a melting point of 109.2 °C.

For CC1SC(=NC2CCCCCC2)N(C)C1CC(=O)Nc1ccc(Cl)cc1.Cl (stereo not drawn) [KHG24643, (2-cycloheptylimino-3,5-dimethyl-1,3-thiazolidine-4-yl)-N-(4-chlorophenyl)-acetamide hydrochloride], the inhibition at 10 µM [1, 2] was 65.4% and the melting point was 240 to 242 °C.

With Cl.O=C(CC1CSC(=NC2CCCCC2)N1Cc1ccccc1)Nc1ccc(F)cc1 (stereo not drawn) [KHG24305, (2-cyclohexylimino-3-benzyl-1,3-thiazolidine-4-yl)-N-(4-fluorophenyl)-acetamide hydrochloride] the inhibition at 10 µM [1, 2] was 58.9% and the melting point was 214.1 °C.

Compound CCCN1C(=NC2CCCCC2)SCC1CC(=O)Nc1ccc(C)cc1.Cl (stereo not drawn) [KHG24297, [2-cyclohexylimino-3-(n-propyl)-1,3-thiazolidine-4-yl]-N-(4-methylphenyl)-acetamide hydrochloride] has an inhibition at 10 µM [1, 2] of 51% and a melting point of 188.9 °C.

CC(C)N1C(=NC23CC4CC(CC(C4)C2)C3)SCC1CC(=O)Nc1ccc(CF)cc1.Cl (stereo not drawn) [KHG24829, [2-(1-adamantylimino)-3-isopropyl-1,3-thiazolidine-4-yl]-N-(4-fluoromethylphenyl)-acetamide hydrochloride] gave an inhibition at 10 µM [1, 2] of 69% and a melting point of 227 °C.

Work on CCCCc1ccc(NC(=O)CC2CSC(=NC3CCCCC3)N2CCC)cc1.Cl (stereo not drawn) [KHG24291, [2-cyclohexylimino-3-(n-propyl)-1,3-thiazolidine-4-yl]-N-(4-n-butylphenyl)-acetamide hydrochloride] yielded an inhibition at 10 µM [1, 2] of 63.2% and a melting point of 201.4 °C.

With CN1C(=NC2CCCCC2)SCC1CC(=O)Nc1cccc(Cl)c1Cl.Cl (stereo not drawn) [KHG24530, (2-cyclohexylimino-3-methyl-1,3-thiazolidine-4-yl)-N-(2,3-dichlorophenyl)-acetamide hydrochloride] the inhibition at 10 µM [1, 2] was 38.5% and the melting point was 215 °C.

Cl.O=C(CC1CSC(=NC2CCCCC2)N1Cc1ccccc1)Nc1ccc(Br)cc1 (stereo not drawn) [KHG24300, (2-cyclohexylimino-3-benzyl-1,3-thiazolidine-4-yl)-N-(4-bromophenyl)-acetamide hydrochloride] showed an inhibition at 10 µM [1, 2] of 36.7% and a melting point of 181.4 °C.

With CC1SC(=NC2CCCCCC2)N(C)C1CC(=O)Nc1cccc(F)c1.Cl (stereo not drawn) [KHG24641, (2-cycloheptylimino-3,5-dimethyl-1,3-thiazolidine-4-yl)-N-(3-fluorophenyl)-acetamide hydrochloride] the inhibition at 10 µM [1, 2] was 63.5% and the melting point was 247 to 249 °C.

CN1C(=NC2CCCC2)SCC1CC(=O)Nc1cc(Cl)cc(Cl)c1.Cl (stereo not drawn) [KHG24100, (2-cyclopentylimino-3-methyl-1,3-thiazolidine-4-yl)-N-(3,5-dichlorophenyl)-acetamide hydrochloride] showed an inhibition at 10 µM [1, 2] of 60.8% and a melting point of 231 to 232.5 °C.

CC(C)Oc1cccc(N=C2SCC(CC(=O)Nc3ccc(Cl)cc3)N2C)c1.Cl (stereo not drawn) [KHG21653, [2-(3-isopropoxyphenylimino)-3-methyl-1,3-thiazolidine-4-yl]-N-(4-chlorophenyl)-acetamide hydrochloride] showed an inhibition at 10 µM [1, 3] of -2.17% and a melting point of 201 to 203 °C.

In the case of Cc1ccc(NC(=O)C2CSC(=NC3CCCCCC3)N2C)cc1.Cl (stereo not drawn) [KHG24629, (2-cycloheptylimino-3-methyl-1,3-thiazolidine-4-yl)-N-(4-methylphenyl)-carboxamide hydrochloride], the “FDSS (% inhibition)/10uM” value ([1]; 10 μM, HEK293 cells stably expressing α1G T-type calcium channel and Kir2.1, compounds of the examples) is reported as 47.03% and the melting point is reported as 202.1 °C.

In the case of CN1C(=NC2CCCCCC2)SCC1C(=O)NCc1ccc(Cl)cc1.Cl (stereo not drawn) [KHG24337, (2-cycloheptylimino-3-methyl-1,3-thiazolidine-4-yl)-N-(4-chlorobenzyl)-carboxamide hydrochloride], the inhibition at 10 µM [1, 2] is reported as 56.6% and the melting point is reported as 220 to 222 °C.

In the case of CCCCc1ccc(N=C2SCC(CC(=O)Nc3ccc(Cl)cc3)N2C)cc1.Cl (stereo not drawn) [KHG21654, [2-(4-n-butylphenylimino)-3-methyl-1,3-thiazolidine-4-yl]-N-(4-chlorophenyl)-acetamide hydrochloride], the inhibition at 10 µM [1, 3] is reported as -1.13% and the melting point is reported as 239 to 241 °C.

Work on CN1C(=NC2CCCCC2)SCC1CC(=O)Nc1cc(Cl)c(Cl)cc1Cl.Cl (stereo not drawn) [KHG24533, (2-cyclohexylimino-3-methyl-1,3-thiazolidine-4-yl)-N-(2,4,5-trichlorophenyl)-acetamide hydrochloride] yielded an inhibition at 10 µM [1, 2] of 48.9% and a melting point of 186 °C.

With CC1SC(=NC2CCCCC2)N(C)C1CC(=O)Nc1ccc(F)cc1.Cl (stereo not drawn) [KHG24525, (2-cyclohexylimino-3,5-dimethyl-1,3-thiazolidine-4-yl)-N-(4-fluorophenyl)-acetamide hydrochloride] the inhibition at 10 µM [1, 2] was 31.5% and the melting point was 267 to 269 °C.
